Test results published in PMC12615518, “Discovery of CRBN-recruiting PROTAC degraders of the METTL3-METTL14 complex” (Medicinal Chemistry Research, 2025).

Key:
METTL14 = target: T1, METTL14 (Homo sapiens, UniProt Q9HCE5); assay: Immunoblotting (Western blot) degradation of METTL14 in MV4-11 cells; assay type: cell-based; details: MV4-11 cells, 24 h, immunoblotting, nd = no degradation
T1 construct: Following treatment, total cellular proteins were extracted using RIPA buffer; endogenous in cells; host or cells: MV4-11 (MV4.11) human AML cells, ATCC
T1 sequence (Q9HCE5 whole entry): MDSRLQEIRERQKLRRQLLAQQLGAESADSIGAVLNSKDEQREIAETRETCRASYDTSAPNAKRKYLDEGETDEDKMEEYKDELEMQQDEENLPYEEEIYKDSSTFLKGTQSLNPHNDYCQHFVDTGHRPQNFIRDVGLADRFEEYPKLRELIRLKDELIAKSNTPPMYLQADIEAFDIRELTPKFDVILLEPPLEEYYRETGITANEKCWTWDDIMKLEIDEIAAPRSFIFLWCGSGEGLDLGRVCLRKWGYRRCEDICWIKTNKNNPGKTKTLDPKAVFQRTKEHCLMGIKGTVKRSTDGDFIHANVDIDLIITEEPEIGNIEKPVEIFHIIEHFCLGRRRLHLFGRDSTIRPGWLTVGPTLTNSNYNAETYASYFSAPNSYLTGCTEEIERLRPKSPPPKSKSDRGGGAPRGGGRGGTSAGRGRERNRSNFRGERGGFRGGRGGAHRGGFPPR
T1 sequence (Q86U44 2-580 partner): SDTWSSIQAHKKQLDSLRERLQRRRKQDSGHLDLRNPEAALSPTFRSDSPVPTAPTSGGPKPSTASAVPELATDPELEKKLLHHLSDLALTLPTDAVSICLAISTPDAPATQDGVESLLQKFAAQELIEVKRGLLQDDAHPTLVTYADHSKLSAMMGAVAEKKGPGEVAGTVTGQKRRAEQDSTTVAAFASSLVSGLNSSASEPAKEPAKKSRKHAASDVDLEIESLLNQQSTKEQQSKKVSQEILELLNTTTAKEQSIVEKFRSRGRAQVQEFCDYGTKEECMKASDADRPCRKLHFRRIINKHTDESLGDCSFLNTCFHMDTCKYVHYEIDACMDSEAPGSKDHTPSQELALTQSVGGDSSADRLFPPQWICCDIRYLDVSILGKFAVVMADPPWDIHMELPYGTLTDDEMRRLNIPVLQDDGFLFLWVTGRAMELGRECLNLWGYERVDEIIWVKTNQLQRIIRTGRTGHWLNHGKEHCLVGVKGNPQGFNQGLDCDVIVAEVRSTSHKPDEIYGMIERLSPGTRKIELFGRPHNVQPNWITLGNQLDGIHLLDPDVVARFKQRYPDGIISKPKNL
Procedure: (§1) All cell lines were maintained under standard conditions in a humidified atmosphere at 37 °C with 5% CO₂.
(§2) Western Blot Analysis: Following treatment, total cellular proteins were extracted using RIPA buffer (Auragene, Changsha, China). […] After washing, membranes were incubated with horseradish peroxidase (HRP)-conjugated secondary antibodies (anti-rabbit or anti-mouse IgG; 1:5000) for 2 hours at room temperature. Protein bands were visualized using an enhanced chemiluminescence (ECL) detection kit (Amersham Pharmacia), following the manufacturer's protocol. Band intensities were quantified using ImageJ software and normalized to ACTIN as a loading control. Data was analyzed using GraphPad Prism 9.

METTL3 = METTL3 (Homo sapiens, UniProt Q86U44); assay: Immunoblotting (Western blot) degradation of METTL3 in MV4-11 cells; assay type: cell-based; parameters: Following treatment, total cellular proteins were extracted using RIPA buffer; endogenous in cells; host or cells: MV4-11 (MV4.11) human AML cells, ATCC; details: MV4-11 cells, 24 h, immunoblotting, nd = no degradation
METTL3, sequence (Q86U44 2-580 limits assumed): as the sequence (Q86U44 2-580 partner) above
METTL3, sequence (Q9HCE5 whole entry partner): as the sequence (Q9HCE5 whole entry) above
Procedure: as §1, §2

## CC1(C)CCN(Cc2cc(F)c(N3CC(=O)NC4(CCN(c5cc(NCCCCC(=O)N6CCN(c7ccc8c(c7)C(=O)N(C7CCC(=O)NC7=O)C8=O)CC6)ncn5)CC4)C3)cc2F)CC1 (centres unmarked) [Compound 4a, 5-(4-(5-((6-(4-(4-((4,4-dimethylpiperidin-1-yl)methyl)-2,5-difluorophenyl)-2-oxo-1,4,9-triazaspiro[5.5]undecan-9-yl)pyrimidin-4-yl)amino)pentanoyl)piperazin-1-yl)-2-(2,6-dioxopiperidin-3-yl)isoindoline-1,3-dione]
METTL14
  % reduction in MV4-11 cells, 0.3 µM, METTL14: 6%
  % reduction in MV4-11 cells, 1.0 µM, METTL14: 27%
METTL3
  % reduction in MV4-11 cells, 0.3 µM, METTL3: 14%
  % reduction in MV4-11 cells, 1.0 µM, METTL3: 47%

## CC1(C)CCN(Cc2cc(F)c(N3CC(=O)NC4(CCN(c5cc(NCCCCCC(=O)N6CCN(c7ccc8c(c7)C(=O)N(C7CCC(=O)NC7=O)C8=O)CC6)ncn5)CC4)C3)cc2F)CC1 (centres unmarked) [Compound 4b, 5-(4-(6-((6-(4-(4-((4,4-dimethylpiperidin-1-yl)methyl)-2,5-difluorophenyl)-2-oxo-1,4,9-triazaspiro[5.5]undecan-9-yl)pyrimidin-4-yl)amino)hexanoyl)piperazin-1-yl)-2-(2,6-dioxopiperidin-3-yl)isoindoline-1,3-dione]
METTL14
  % reduction in MV4-11 cells, 0.3 µM, METTL14: 36%
  % reduction in MV4-11 cells, 1.0 µM, METTL14: 58%
METTL3
  % reduction in MV4-11 cells, 0.3 µM, METTL3: 45%
  % reduction in MV4-11 cells, 1.0 µM, METTL3: 56%

## CC1(C)CCN(Cc2cc(F)c(N3CC(=O)NC4(CCN(c5cc(NCCCCCCC(=O)N6CCN(c7ccc8c(c7)C(=O)N(C7CCC(=O)NC7=O)C8=O)CC6)ncn5)CC4)C3)cc2F)CC1 (centres unmarked) [Compound 4c, 5-(4-(7-((6-(4-(4-((4,4-dimethylpiperidin-1-yl)methyl)-2,5-difluorophenyl)-2-oxo-1,4,9-triazaspiro[5.5]undecan-9-yl)pyrimidin-4-yl)amino)heptanoyl)piperazin-1-yl)-2-(2,6-dioxopiperidin-3-yl)isoindoline-1,3-dione]
METTL14
  % reduction in MV4-11 cells, 0.3 µM, METTL14: 46%
  % reduction in MV4-11 cells, 1.0 µM, METTL14: 61%
METTL3
  % reduction in MV4-11 cells, 0.3 µM, METTL3: 43%
  % reduction in MV4-11 cells, 1.0 µM, METTL3: 62%

## CC1(C)CCN(Cc2cc(F)c(N3CC(=O)NC4(CCN(c5cc(NCCCCCCCC(=O)N6CCN(c7ccc8c(c7)C(=O)N(C7CCC(=O)NC7=O)C8=O)CC6)ncn5)CC4)C3)cc2F)CC1 (centres unmarked) [Compound 4d, 5-(4-(8-((6-(4-(4-((4,4-dimethylpiperidin-1-yl)methyl)-2,5-difluorophenyl)-2-oxo-1,4,9-triazaspiro[5.5]undecan-9-yl)pyrimidin-4-yl)amino)octanoyl)piperazin-1-yl)-2-(2,6-dioxopiperidin-3-yl)isoindoline-1,3-dione]
METTL14
  % reduction in MV4-11 cells, 0.3 µM, METTL14: 51%
  % reduction in MV4-11 cells, 1.0 µM, METTL14: 67%
METTL3
  % reduction in MV4-11 cells, 0.3 µM, METTL3: 52%
  % reduction in MV4-11 cells, 1.0 µM, METTL3: 68%

## CC1(C)CCN(Cc2cc(F)c(N3CC(=O)NC4(CCN(c5cc(NCCCCCCCCC(=O)N6CCN(c7ccc8c(c7)C(=O)N(C7CCC(=O)NC7=O)C8=O)CC6)ncn5)CC4)C3)cc2F)CC1 (centres unmarked) [Compound 4e, 5-(4-(9-((6-(4-(4-((4,4-dimethylpiperidin-1-yl)methyl)-2,5-difluorophenyl)-2-oxo-1,4,9-triazaspiro[5.5]undecan-9-yl)pyrimidin-4-yl)amino)nonanoyl)piperazin-1-yl)-2-(2,6-dioxopiperidin-3-yl)isoindoline-1,3-dione]
METTL14
  % reduction in MV4-11 cells, 0.3 µM, METTL14: 39%
  % reduction in MV4-11 cells, 1.0 µM, METTL14: 53%
METTL3
  % reduction in MV4-11 cells, 0.3 µM, METTL3: 38%
  % reduction in MV4-11 cells, 1.0 µM, METTL3: 52%
